# Test results taken from PubChem BioAssay AID256 (DTP/NCI, 2004).
# Values joined by “and” are separate entries in the source; they are usually repeats but may differ in a detail not shown here. Identical values can stand only once. Inconclusive results and toxic doses are left out. Non-standard residues stand in square brackets, D forms with d. Residues, ends and D or L forms follow the SMILES beside them. ξ: configuration not given here. ξI = CCC(C)C(N)C(=O)O
# Test system: CD2F1 mice, L1210 leukemia ip, survival T/C
# Experiment: NCI In Vivo Anticancer Drug Screen. Data for tumor model L1210 Leukemia (intraperitoneal) in CD2F1 (CDF1) mice
# Details: higher = longer survival
# Method in brief: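 Tumor-bearing mice (transplanted tumor) were split into treated and vehicle control groups, and the measured endpoint of each treated group was divided by that of its vehicle controls.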
# [1] = endpoint: mean survival time, dose: 100.0 mg/kg/injection, schedule: Q04DX002 (ip), vehicle: saline with Tween-80
# [2] = endpoint: mean survival time, dose: 100.0 mg/kg/injection, schedule: Q04DX002 (ip), vehicle: saline
# [3] = endpoint: mean survival time, dose: 200.0 mg/kg/injection, schedule: Q04DX002 (ip), vehicle: saline with Tween-80
# [4] = endpoint: mean survival time, dose: 200.0 mg/kg/injection, schedule: Q04DX002 (ip), vehicle: saline
# [5] = endpoint: mean survival time, dose: 400.0 mg/kg/injection, schedule: Q04DX002 (ip), vehicle: saline with Tween-80
# [6] = endpoint: mean survival time, dose: 100.0 mg/kg/injection, schedule: Q04DX003 (ip), vehicle: saline with Tween-80
# [7] = endpoint: mean survival time, dose: 200.0 mg/kg/injection, schedule: Q04DX003 (ip), vehicle: saline with Tween-80
# [8] = endpoint: mean survival time, dose: 400.0 mg/kg/injection, schedule: Q04DX003 (ip), vehicle: saline with Tween-80
structure (smiles),measurement,setting,value
CCC(C)C(NC(=O)CN)C(=O)O (centres undefined) (H-Gly-[ξI]-OH),T/C,[1],100 % of control
same,T/C,[2],94 % of control
same,T/C,[3],103 % of control
same,T/C,[4],90 % of control
same,T/C,[5],95 % of control
same,T/C,"endpoint: mean survival time, dose: 400.0 mg/kg/injection, schedule: Q04DX002 (ip), vehicle: saline",101 % of control
O=C(O)C1=C(C(=O)O)C2C3CC4C(C13)C42,T/C,[6],101 % of control
same,T/C,[7],100 % of control
same,T/C,[8],88 % of control
CCCCn1cnc2c(SSc3ncnc4c3ncn4CCCC)ncnc21,T/C,[6],116 % of control and 106 % of control
same,T/C,[7],113 % of control
same,T/C,"endpoint: mean survival time, dose: 264.0 mg/kg/injection, schedule: Q04DX003 (ip), vehicle: saline with Tween-80",97 % of control
same,T/C,"endpoint: mean survival time, dose: 300.0 mg/kg/injection, schedule: Q04DX003 (ip), vehicle: saline with Tween-80",120 % of control
same,T/C,[8],122 % of control and 111 % of control
same,T/C,"endpoint: mean survival time, dose: 600.0 mg/kg/injection, schedule: Q04DX003 (ip), vehicle: saline with Tween-80",97 % of control
O=C1c2ccccc2CCC12OC2c1ccc(Cl)cc1 (centres undefined),T/C,"endpoint: mean survival time, dose: 50.0 mg/kg/injection, schedule: Q04DX003 (ip), vehicle: saline",106 % of control
same,T/C,"endpoint: mean survival time, dose: 100.0 mg/kg/injection, schedule: Q04DX003 (ip), vehicle: saline",101 % of control
same,T/C,"endpoint: mean survival time, dose: 200.0 mg/kg/injection, schedule: Q04DX003 (ip), vehicle: saline",101 % of control
same,T/C,"endpoint: mean survival time, dose: 400.0 mg/kg/injection, schedule: Q04DX003 (ip), vehicle: saline",98 % of control
O=C1C=C(Nc2nc(O)cc(=O)[nH]2)c2ccccc2C1=O,T/C,"endpoint: mean survival time, dose: 100.0 mg/kg/injection, schedule: Q01DX009 (ip), vehicle: Klucel (hydroxypropylcellulose) (HPC)",97 % of control
C[n+]1ccc(/C=C\c2ccc(N(CCCl)CCCl)cc2)c2ccccc21,T/C,"endpoint: mean survival time, dose: 6.25 mg/kg/injection, schedule: Q01DX009 (ip), vehicle: Klucel (hydroxypropylcellulose) (HPC)",98 % of control
same,T/C,"endpoint: mean survival time, dose: 12.5 mg/kg/injection, schedule: Q01DX009 (ip), vehicle: Klucel (hydroxypropylcellulose) (HPC)",101 % of control
same,T/C,"endpoint: mean survival time, dose: 25.0 mg/kg/injection, schedule: Q01DX009 (ip), vehicle: Klucel (hydroxypropylcellulose) (HPC)",112 % of control
COc1cc2c(C(=O)O)cc(-c3ccc(Cl)cc3)nc2cc1Cl,T/C,"endpoint: mean survival time, dose: 100.0 mg/kg/injection, schedule: Q01DX001 (ip), vehicle: saline",98 % of control
CCCCCCCCCCC[n+]1ccc(C#N)cc1,T/C,"endpoint: mean survival time, dose: 9.38 mg/kg/injection, schedule: Q01DX001 (ip), vehicle: saline",105 % of control
same,T/C,"endpoint: mean survival time, dose: 18.75 mg/kg/injection, schedule: Q01DX001 (ip), vehicle: saline",98 % of control
C1CCC2(CC1)NCCO2,T/C,"endpoint: mean survival time, dose: 100.0 mg/kg/injection, schedule: Q01DX009 (ip), vehicle: saline sonified",96 % of control
same,T/C,"endpoint: mean survival time, dose: 200.0 mg/kg/injection, schedule: Q01DX009 (ip), vehicle: saline sonified",93 % of control
Cc1ccc(N=C=C(c2ccccc2)c2ccccc2)cc1,T/C,[6],94 % of control
same,T/C,[7],97 % of control
same,T/C,[8],94 % of control
Cc1nccc2cc3c(cc12)Cc1ccccc1-3,T/C,[1],88 % of control
same,T/C,[3],92 % of control
same,T/C,[5],88 % of control
COC(=O)c1csc(C2OC(CO)C(O)C2O)n1 (centres undefined),T/C,"endpoint: mean survival time, dose: 25.0 mg/kg/injection, schedule: Q01DX005 (ip), vehicle: water",107 % of control
same,T/C,"endpoint: mean survival time, dose: 50.0 mg/kg/injection, schedule: Q01DX005 (ip), vehicle: water",103 % of control
same,T/C,"endpoint: mean survival time, dose: 100.0 mg/kg/injection, schedule: Q01DX005 (ip), vehicle: water",101 % of control
same,T/C,"endpoint: mean survival time, dose: 200.0 mg/kg/injection, schedule: Q01DX005 (ip), vehicle: water",101 % of control
same,T/C,"endpoint: mean survival time, dose: 400.0 mg/kg/injection, schedule: Q01DX005 (ip), vehicle: water",102 % of control
COC(COC(=O)N1CCN(C=O)CC1)C1=C(N2CC2)C(=O)C(C)=C(N2CC2)C1=O (centres undefined),T/C,"endpoint: median survival time, dose: 3.0 mg/kg/injection, schedule: Q01DX005 (ip), vehicle: saline",168 % of control
same,T/C,"endpoint: median survival time, dose: 3.6 mg/kg/injection, schedule: Q01DX005 (ip), vehicle: saline",160 % of control
same,T/C,"endpoint: median survival time, dose: 6.0 mg/kg/injection, schedule: Q01DX005 (ip), vehicle: saline",190 % of control and 191 % of control
same,T/C,"endpoint: median survival time, dose: 12.0 mg/kg/injection, schedule: Q01DX005 (ip), vehicle: saline",111 % of control
C[N+](C)(C)CCC(=O)c1ccc(C(=O)CC[N+](C)(C)C)cc1,T/C,"endpoint: mean survival time, dose: 50.0 mg/kg/injection, schedule: Q04DX002 (ip), vehicle: saline",96 % of control
same,T/C,"endpoint: mean survival time, dose: 100.0 mg/kg/injection, schedule: Q01DX001 (ip), vehicle: saline with Tween-80",100 % of control
same,T/C,[2],96 % of control
same,T/C,"endpoint: mean survival time, dose: 200.0 mg/kg/injection, schedule: Q01DX001 (ip), vehicle: saline with Tween-80",94 % of control
same,T/C,[4],96 % of control
CCCCCC/C=N/[N+](C)(C)C,T/C,"endpoint: mean survival time, dose: 12.5 mg/kg/injection, schedule: Q01DX009 (ip), vehicle: saline",114 % of control
same,T/C,"endpoint: mean survival time, dose: 25.0 mg/kg/injection, schedule: Q01DX009 (ip), vehicle: saline",101 % of control
same,T/C,"endpoint: mean survival time, dose: 50.0 mg/kg/injection, schedule: Q01DX009 (ip), vehicle: saline",101 % of control and 107 % of control
Cc1ccc(N2CC(O)CSC2=Nc2ccccc2)cc1 (centres undefined),T/C,"endpoint: mean survival time, dose: 100.0 mg/kg/injection, schedule: Q01DX001 (ip), vehicle: Klucel (hydroxypropylcellulose) (HPC)",93 % of control
same,T/C,"endpoint: mean survival time, dose: 200.0 mg/kg/injection, schedule: Q01DX001 (ip), vehicle: Klucel (hydroxypropylcellulose) (HPC)",91 % of control
same,T/C,"endpoint: mean survival time, dose: 400.0 mg/kg/injection, schedule: Q01DX001 (ip), vehicle: Klucel (hydroxypropylcellulose) (HPC)",91 % of control
